Measured values: ChEMBL document CHEMBL1201862, “PubChem BioAssay data set” (2004)
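Briefly, cells in 96-well plates were exposed to five compound concentrations for 48 h, and endpoints were estimated by linear interpolation. At the GI50, growth is halved.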 Calls of active or inactive are those of the source. Rule as the data show it: active = GI50 up to about 1.1 µM and inactive = higher.

What was measured:
Test in all cases: NCI anticancer screen, dose series, 48 h
[1] = tested on: SW-620
[2] = tested on: HCC 2998
[3] = tested on: RPMI-8226
[4] = tested on: IGROV-1
[5] = tested on: Malme-3M
[6] = tested on: SF-295
[7] = tested on: T47D
[8] = tested on: SK-MEL-28
[9] = tested on: LOX IMVI
[10] = tested on: U-251
[11] = tested on: OVCAR-8
[12] = tested on: SK-MEL-2
[13] = tested on: MDA-N
[14] = tested on: PC-3
[15] = tested on: MCF7
[16] = tested on: A549
[17] = tested on: SR
[18] = tested on: SNB-19

| SMILES | GI50 [1] | GI50 [2] | GI50 [3] | GI50 [4] | GI50 [5] | GI50 [6] | GI50 [7] | GI50 [8] | GI50 [9] | GI50 [10] | GI50 [11] | GI50 [12] | GI50 [13] | GI50 [14] | GI50 [15] | GI50 [16] | GI50 [17] | GI50 [18] |
| --- | --- | --- | --- | --- | --- | --- | --- | --- | --- | --- | --- | --- | --- | --- | --- | --- | --- | --- |
| O=C(/C=C/c1ccsc1)c1ccc(Cl)cc1 | 33.6 µM (inactive) | > 100 µM (inactive) | 21 µM (inactive) | > 100 µM (inactive) | 33.1 µM (inactive) | > 100 µM (inactive) | 74.8 µM (inactive) | > 100 µM (inactive) | 25.5 µM (inactive) | 66.4 µM (inactive) | 64.7 µM (inactive) | > 100 µM (inactive) | 59 µM (inactive) | 70.8 µM (inactive) | 34.8 µM (inactive) | > 100 µM (inactive) | 18.7 µM (inactive) | 53.8 µM (inactive) |
| CCOC(=O)C(NC(=O)CC(C)C)(Nc1ccc(C(F)(F)F)cc1)C(F)(F)F (configuration not stated) | 57.8 µM (inactive) | 32.8 µM (inactive) | 16.7 µM (inactive) | 22.2 µM (inactive) | 96.4 µM (inactive) | > 100 µM (inactive) | 18.4 µM (inactive) | > 100 µM (inactive) | 84.5 µM (inactive) | 28 µM (inactive) | 27.1 µM (inactive) | 15.7 µM (inactive) | 32.6 µM (inactive) | 20 µM (inactive) | > 100 µM (inactive) | > 100 µM (inactive) | 23.4 µM (inactive) | > 100 µM (inactive) |
| C=Cc1c(C)c(O)cc2c1-c1ccc(O)c(C)c1CC2 | 23.4 µM (inactive) | 19 µM (inactive) | 22.4 µM (inactive) | 16.6 µM (inactive) | 19.6 µM (inactive) | 14.9 µM (inactive) | 10.9 µM (inactive) | 16.2 µM (inactive) | 16.1 µM (inactive) | 14.3 µM (inactive) | 17.5 µM (inactive) | 17.1 µM (inactive) | 13.6 µM (inactive) | > 10 µM (inactive) | 20.9 µM (inactive) | 19 µM (inactive) | 3.71 µM (inactive) | 24.5 µM (inactive) |
| COc1cccc(N2C(=O)C3CC(CC(C)(C)C)c4c([nH]c5ccccc45)C3C2=O)c1 (configuration not stated) | > 10 µM (inactive) | > 10 µM (inactive) | > 10 µM (inactive) | > 10 µM (inactive) | 5.9 µM (inactive) | > 10 µM (inactive) | > 10 µM (inactive) | > 10 µM (inactive) | 9.44 µM (inactive) | 7.91 µM (inactive) | 3.56 µM (inactive) | > 10 µM (inactive) | > 10 µM (inactive) | > 10 µM (inactive) | 8.55 µM (inactive) | > 10 µM (inactive) | 1.48 µM (inactive) | > 10 µM (inactive) |
| Cc1cc(=O)n2nc(CSc3nnc(Sc4cc(O)ccc4O)s3)sc2n1 | 22.8 µM (inactive) | > 100 µM (inactive) | 24.5 µM (inactive) | > 100 µM (inactive) | 40.3 µM (inactive) | > 100 µM (inactive) | 32.1 µM (inactive) | 54.1 µM (inactive) | 21.7 µM (inactive) | 35.8 µM (inactive) | 67.1 µM (inactive) | > 100 µM (inactive) | 18.6 µM (inactive) | > 100 µM (inactive) | 14.2 µM (inactive) | > 100 µM (inactive) | 28.3 µM (inactive) | > 100 µM (inactive) |
| COc1cc(NCCC2CCCCN2)c2ncccc2c1 (configuration not stated) | > 70.6 µM (inactive) | 16.4 µM (inactive) | > 48.3 µM (inactive) | 8.87 µM (inactive) | 26.9 µM (inactive) | 67.1 µM (inactive) | 0.397 µM (active) | 29.2 µM (inactive) | 52.2 µM (inactive) | 56.4 µM (inactive) | > 100 µM (inactive) | > 55.7 µM (inactive) | 36.3 µM (inactive) | 74.5 µM (inactive) | 0.31 µM (active) | > 96.6 µM (inactive) | 27.3 µM (inactive) | > 100 µM (inactive) |
| C=C1CCC(O)C/C1=C/C=C1\CCCC2(C)C1CCC2C(C)CCCC(C)C (configuration not stated) | 16.7 µM (inactive) | 21.2 µM (inactive) | 23.8 µM (inactive) | 17.3 µM (inactive) | 18 µM (inactive) | 19.6 µM (inactive) | 19 µM (inactive) | 16.6 µM (inactive) | 17.9 µM (inactive) | 18.6 µM (inactive) | 18.1 µM (inactive) | 18.6 µM (inactive) | 18 µM (inactive) | 18.8 µM (inactive) | 12.9 µM (inactive) | 19.6 µM (inactive) | 18.5 µM (inactive) | 19.1 µM (inactive) |
| CCCNC(=O)CCC(C)[C@H]1CCC2C3C(C[C@H](OC(C)=O)[C@@]21C)[C@@]1(C)CCC2(C[C@H]1C[C@H]3OC(C)=O)OOC1(CCCCC1)OO2 (some centres not stated) | 4.58 µM (inactive) | 2.7 µM (inactive) | 0.923 µM (active) | 0.478 µM (active) | 2.13 µM (inactive) | 3.79 µM (inactive) | 2.11 µM (inactive) | 55.5 µM (inactive) | 1.84 µM (inactive) | 1.85 µM (inactive) | 1.42 µM (inactive) | 2 µM (inactive) | 3.05 µM (inactive) | 1.69 µM (inactive) | 3.04 µM (inactive) | 0.416 µM (active) | 1.32 µM (inactive) | 7.18 µM (inactive) |
| CC(C)[Si](OC1=CCC[C@H]2NC(=O)[C@@H](Cc3ccc([N+](=O)[O-])cc3)[C@@]12C)(C(C)C)C(C)C |  | 1.95 µM (inactive) |  | 11.3 µM (inactive) | 16.6 µM (inactive) | 4.59 µM (inactive) | 4.73 µM (inactive) |  | 4.9 µM (inactive) |  | 11.6 µM (inactive) | 12.8 µM (inactive) | 4.98 µM (inactive) | 3.4 µM (inactive) | 3.73 µM (inactive) | 1.85 µM (inactive) | 2.79 µM (inactive) | 12.5 µM (inactive) |
| CCN(CC)CCNc1ccc2ncn3c4c(OC)ccc(O)c4c(=O)c1c23 | 3.09 µM (inactive) | 5.25 µM (inactive) | 4.21 µM (inactive) | 5.56 µM (inactive) | 19.4 µM (inactive) | 16.6 µM (inactive) | > 100 µM (inactive) | 12.3 µM (inactive) |  | 12.6 µM (inactive) | 6.93 µM (inactive) | > 100 µM (inactive) | 21.1 µM (inactive) | 10.9 µM (inactive) | 3.52 µM (inactive) | 2.86 µM (inactive) | 1.63 µM (inactive) | 19.6 µM (inactive) |
| N#Cc1c(O)n(-c2ccccc2)c(=O)c2c(N)n[nH]c12 | 64.9 µM (inactive) | > 100 µM (inactive) | > 100 µM (inactive) | > 100 µM (inactive) | > 100 µM (inactive) |  | > 100 µM (inactive) | > 100 µM (inactive) | 21.5 µM (inactive) | > 100 µM (inactive) | > 100 µM (inactive) | > 100 µM (inactive) | > 100 µM (inactive) | > 100 µM (inactive) | > 100 µM (inactive) | > 100 µM (inactive) | > 100 µM (inactive) | > 100 µM (inactive) |
